The values below come from publication PMC10165934 (Emerging Microbes & Infections, 2023).

Read-outs that look alike come from different tables or passages of the source.

Usually EC50 stands for the concentration at which the effect is half-maximal. In general, IC50 refers to the concentration at which inhibition is half-maximal.

The subject of assay [1] is SARS-CoV-2. The following applies: read-out: antiviral EC50; ref 39 (Kasprzyk et al.); cited from earlier work.
Assay [2] concerns the target T1, SARS-CoV-2 NSP14 MTase (Severe acute respiratory syndrome coronavirus 2, UniProt P0DTD1). The following applies: read-out: anti-MTase IC50; ref 39 (Kasprzyk et al.); cited from earlier work.
In assay [3] the test system is SARS-CoV-2. The note with it: read-out: antiviral EC50; ref 37 (Basu et al.); cited from earlier work.
For assay [4], the target named is T2, NS5 MTase of ZIKV (Zika virus, UniProt Q32ZE1).
T2 sequence (Q32ZE1 2517-2790): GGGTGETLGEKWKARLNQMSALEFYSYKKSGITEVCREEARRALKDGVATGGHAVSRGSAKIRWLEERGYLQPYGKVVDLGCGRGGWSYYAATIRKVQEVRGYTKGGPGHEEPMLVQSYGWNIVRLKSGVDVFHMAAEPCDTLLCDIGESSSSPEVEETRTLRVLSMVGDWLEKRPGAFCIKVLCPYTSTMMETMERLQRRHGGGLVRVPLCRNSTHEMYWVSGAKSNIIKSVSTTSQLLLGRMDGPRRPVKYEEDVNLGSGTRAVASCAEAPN
The assay is described as follows: FP-based FL-NAH displacement assay, ZIKV NS5. The following applies: ZIKV NS5 2.5 µM, 96-well plate. The format is binding.

The target in assay [5] is SARS-CoV-2 NSP16 2’-O MTase (Severe acute respiratory syndrome coronavirus 2, UniProt P0DTD1). The assay is described as follows: FP-based FL-NAH displacement assay, NSP16. In kind it is binding. The following applies: NSP16 0.5 µM, 96-well plate.
Assay [6] has as its target T1, SARS-CoV-2 NSP14 MTase. The assay is described as follows: FP-based FL-NAH displacement assay. In kind it is binding.
Assay [7] deals with T1, SARS-CoV-2 NSP14 MTase. The note with it: read-out: anti-MTase IC50; ref 37 (Basu et al.); cited from earlier work.
Assay [8] concerns SARS-CoV-2 WA strain. The assay is described as follows: Checkerboard combination assay. The note with it: Vero E6 cells. In kind it is cell-based.

In the case of `Cc1cc(-c2ccc(/N=N/c3ccc4c(S(=O)(=O)O)cc(S(=O)(=O)O)c(N)c4c3O)c(C)c2)ccc1/N=N/c1ccc2c(S(=O)(=O)O)cc(S(=O)(=O)O)c(N)c2c1O` [Evans Blue], the EC50 in assay [1] was 31 µM. Further, the IC50 in assay [2] is 4.9 µM.

Consider `N#Cc1ccc(N2N=C3c4ccc(C(=O)O)cc4CC[C@@H]3[C@@H]2C2CCCC2)cc1Cl` [PF-03882845], for which the EC50 in assay [3] was 11 µM.

Consider `NCCOc1cc(C(=O)Nc2cc(OCCN)c3ccccc3n2)nc(C(=O)Nc2cc(OCCN)c3ccccc3n2)c1` [Pyridostatin], for which the 50% effective concentration (EC50) in assay [1] is 3.6 µM. Further, in assay [2], the IC50 is 4.1 µM.

`Nc1c(S(=O)(=O)O)cc(Nc2ccc(Nc3nc(Cl)nc(Nc4cccc(S(=O)(=O)O)c4)n3)c(S(=O)(=O)O)c2)c2c1C(=O)c1ccccc1C2=O` [Reactive blue 2]: the concentration for a half-maximal effect (EC50) in assay [1] was 16.3 µM.

As to `Nc1ncnc2c1ncn2[C@@H]1O[C@H](CSCC[C@H](N)C(=O)O)[C@@H](O)[C@H]1O` [SAH, S-adenosyl-L-homocysteine], the “quenching of FP from FL-NAH binding to the ZIKV NS5 MTase” value in assay [4] was “quenched”. Besides, the “quenching of FP from FL-NAH binding to NSP16” value in assay [5] is recorded as “quenched”.

Consider `C[S+](CC[C@H](N)C(=O)[O-])C[C@H]1O[C@@H](n2cnc3c(N)ncnc32)[C@H](O)[C@@H]1O` (some centres unmarked) [SAM, S-adenosylmethionine], for which, in assay [4], the “quenching of FP from FL-NAH binding to the ZIKV NS5 MTase” value was “quenched”. This compound also gave an IC50 in assay [6] of 25 µM. Besides, the “quenching of FP from FL-NAH binding to NSP16” value in assay [5] was “quenched”.

`O=C(CCCN1CCC(O)(c2cccc(C(F)(F)F)c2)CC1)c1ccc(F)cc1` [Trifluperidol]: the IC50 in assay [7] was 23 µM. Further, the EC50 in assay [3] is 59.8 µM.

In the case of `CC(C)(C)[C@H](NC(=O)C(F)(F)F)C(=O)N1C[C@H]2[C@@H]([C@H]1C(=O)N[C@H](C#N)C[C@@H]1CCNC1=O)C2(C)C` [nirmatrelvir], the “EC50 shift in the presence of NSC111552 (1.67 µM)” value in assay [8] was ~1.8 fold.

Take `CCC(CC)COC(=O)[C@H](C)N[P@](=O)(OC[C@H]1O[C@@](C#N)(c2ccc3c(N)ncnn23)[C@H](O)[C@@H]1O)Oc1ccccc1` [remdesivir]: the “EC50 decrease in the presence of NSC111552 ([…])” value in assay [8] is given as “about 2.4 fold”.

Turning to Inauhzin, the IC50 in assay [7] is 12.9 µM. The concentration giving a half-maximal response (EC50) in assay [3] was 13 µM.
